This note sets out measurements from ChEMBL document CHEMBL2073945, “Contribution of cholesterol and phospholipids to inhibitory effect of dimethyl-beta-cyclodextrin on efflux function of P-glycoprotein and multidrug resistance-associated protein 2 in vinblastine-resistant Caco-2 cell monolayers” (Pharm Res, 2004).

For the series, the target named is ATP-dependent translocase ABCB1 (Homo sapiens, UniProt P08183). The series is described as follows: TP_TRANSPORTER: transepithelial transport of Rhodamine 123 (basal to apical) in Caco-2R cells. The format is functional, cell-based. In general terms: Passage across Caco-2 layers is used to estimate intestinal permeability.

Molecules are shown by their SMILES.

Sequence of ATP-dependent translocase ABCB1 (P08183 whole entry): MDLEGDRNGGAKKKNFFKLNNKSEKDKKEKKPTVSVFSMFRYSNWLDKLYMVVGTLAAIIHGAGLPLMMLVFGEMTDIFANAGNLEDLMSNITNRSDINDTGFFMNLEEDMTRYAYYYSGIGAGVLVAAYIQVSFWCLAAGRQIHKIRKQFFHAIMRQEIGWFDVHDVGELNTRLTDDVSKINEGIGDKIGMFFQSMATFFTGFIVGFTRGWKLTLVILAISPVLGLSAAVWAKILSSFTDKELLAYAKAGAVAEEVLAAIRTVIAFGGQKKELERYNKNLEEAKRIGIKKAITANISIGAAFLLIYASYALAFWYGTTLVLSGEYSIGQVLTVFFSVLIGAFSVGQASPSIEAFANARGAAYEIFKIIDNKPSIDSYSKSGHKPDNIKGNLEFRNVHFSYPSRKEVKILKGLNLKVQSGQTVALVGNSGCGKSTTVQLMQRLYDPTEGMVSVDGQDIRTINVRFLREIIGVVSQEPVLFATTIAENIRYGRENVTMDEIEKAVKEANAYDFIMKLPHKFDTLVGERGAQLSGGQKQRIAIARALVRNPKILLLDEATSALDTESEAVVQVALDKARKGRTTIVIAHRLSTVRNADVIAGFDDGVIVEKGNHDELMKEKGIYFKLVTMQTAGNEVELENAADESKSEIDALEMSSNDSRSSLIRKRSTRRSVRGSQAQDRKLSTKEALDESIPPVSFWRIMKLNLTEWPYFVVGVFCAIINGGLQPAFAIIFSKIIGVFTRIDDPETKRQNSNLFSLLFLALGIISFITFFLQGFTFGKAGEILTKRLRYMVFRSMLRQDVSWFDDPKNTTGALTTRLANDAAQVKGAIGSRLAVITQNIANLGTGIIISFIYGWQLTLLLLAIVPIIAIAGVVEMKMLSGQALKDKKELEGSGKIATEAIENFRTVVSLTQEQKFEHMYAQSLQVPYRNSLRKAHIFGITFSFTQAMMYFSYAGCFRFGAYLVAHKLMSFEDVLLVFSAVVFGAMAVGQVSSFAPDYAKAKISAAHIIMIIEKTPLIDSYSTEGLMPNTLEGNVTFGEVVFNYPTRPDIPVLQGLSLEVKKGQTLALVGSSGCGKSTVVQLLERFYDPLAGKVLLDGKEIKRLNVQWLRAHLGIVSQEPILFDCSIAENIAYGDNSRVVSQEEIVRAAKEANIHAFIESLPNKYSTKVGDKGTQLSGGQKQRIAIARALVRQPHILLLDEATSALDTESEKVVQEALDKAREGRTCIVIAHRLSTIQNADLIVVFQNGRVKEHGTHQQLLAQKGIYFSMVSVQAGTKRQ

For `COC[C@@H]1O[C@H]2O[C@@H]3[C@@H](O)[C@H](O)[C@H](O[C@@H]4[C@@H](O)[C@H](O)[C@H](O[C@H]5[C@H](OC)[C@@H](O)[C@@H](O[C@@H]6[C@@H](O)[C@H](O)[C@H](O[C@@H]7[C@@H](O)[C@H](O)[C@H](O[C@@H]8[C@@H](O)[C@H](O)[C@H](O[C@@H]1[C@@H](O)[C@@H]2O)O[C@H]8COC)O[C@H]7COC)O[C@H]6COC)O[C@@H]5COC)O[C@H]4COC)O[C@H]3COC`, the Activity entry is “is not an inhibitor [-]”.

For the molecule `CC(O)COC[C@H]1O[C@@H]2O[C@H]3[C@H](O)[C@@H](O)[C@@H](O[C@H]4[C@H](O)[C@@H](O)[C@@H](O[C@H]5[C@H](O)[C@@H](O)[C@@H](O[C@H]6[C@H](O)[C@@H](O)[C@@H](O[C@H]7[C@H](O)[C@@H](O)[C@@H](O[C@H]8[C@H](O)[C@@H](O)[C@@H](O[C@H]1[C@H](O)[C@H]2O)O[C@@H]8COCC(C)O)O[C@@H]7COCC(C)O)O[C@@H]6COCC(C)O)O[C@@H]5COCC(C)O)O[C@@H]4COCC(C)O)O[C@@H]3COCC(C)O` (stereo partly drawn) [2-HYDROXYPROPYL-BETA-CYCLODEXTRIN], the Activity entry is “is not an inhibitor [-]”.

With `CCCC(OC(CCC)S(=O)(=O)O)S(=O)(=O)O.OC[C@H]1O[C@@H]2O[C@H]3[C@H](O)[C@@H](O)[C@@H](O[C@H]4[C@H](O)[C@@H](O)[C@@H](O[C@H]5[C@H](O)[C@@H](O)[C@@H](O[C@H]6[C@H](O)[C@@H](O)[C@@H](O[C@H]7[C@H](O)[C@@H](O)[C@@H](O[C@H]8[C@H](O)[C@@H](O)[C@@H](O[C@H]1[C@H](O)[C@H]2O)O[C@@H]8CO)O[C@@H]7CO)O[C@@H]6CO)O[C@@H]5CO)O[C@@H]4CO)O[C@@H]3CO`, the Activity entry is “is not an inhibitor [-]”.

For `COC[C@H]1O[C@@H]2O[C@H]3[C@H](O)[C@@H](OC)[C@@H](O[C@H]4[C@H](O)[C@@H](OC)[C@@H](O[C@H]5[C@H](O)[C@@H](OC)[C@@H](O[C@H]6[C@H](O)[C@@H](OC)[C@@H](O[C@H]7[C@H](O)[C@@H](OC)[C@@H](O[C@H]8[C@H](O)[C@@H](OC)[C@@H](O[C@H]1[C@H](O)[C@H]2OC)O[C@@H]8COC)O[C@@H]7COC)O[C@@H]6COC)O[C@@H]5COC)O[C@@H]4COC)O[C@@H]3COC`, the Activity entry is “inhibitor [+]”.
